Data as given in patent publication US20130005747A1, “METHOD FOR SELECTING A CANCER THERAPY” (Cyclacel Limited, priority 2010, published 2013).

Experiments:
Assay in all cases: Fractional growth, 72 h seliciclib
Format in all cases: cell-based, human
HEC-1 = HEC-1 (Uterus), 15 μM seliciclib
From the text: (§1) A total of 270 human cancer cell lines from diverse cancer histopathologic types were investigated.

MG-63 = MG-63 (Bone), 15 μM seliciclib
From the text: as §1

KU-19-19 = KU-19-19 (Bladder), 15 μM seliciclib
From the text: as §1

DAN-G = DAN-G (Pancreas), 15 μM seliciclib
From the text: as §1

HO-1-u-1 = HO-1-u-1 (Head & Neck), 15 μM seliciclib
From the text: as §1

EPLC-272H = EPLC-272H (Lung: NSCLC), 15 μM seliciclib
From the text: as §1

OVCAR-5 = OVCAR-5 (Ovary), 15 μM seliciclib
From the text: as §1

SW 156 = SW 156 (Kidney), 15 μM seliciclib
From the text: as §1

C32 = C32 (Skin), 15 μM seliciclib
From the text: as §1

Ca Ski = Ca Ski (Cervix), 15 μM seliciclib
From the text: as §1

Panc 08.13 = Panc 08.13 (Pancreas), 15 μM seliciclib
From the text: as §1

HOS = HOS (Bone), 15 μM seliciclib
From the text: as §1

LCLC-103H = LCLC-103H (Lung: NSCLC), 15 μM seliciclib
From the text: as §1

HPAF-II = HPAF-II (Pancreas), 15 μM seliciclib
From the text: as §1

MFE-280 = MFE-280 (Uterus), 15 μM seliciclib
From the text: as §1

HLE = HLE (Liver), 15 μM seliciclib
From the text: as §1

AZ-521 = AZ-521 (Stomach), 15 μM seliciclib
From the text: as §1

HGC-27 = HGC-27 (Stomach), 15 μM seliciclib
From the text: as §1

CAL-29 = CAL-29 (Bladder), 15 μM seliciclib
From the text: as §1

NCI-H1568 = NCI-H1568 (Lung: NSCLC), 15 μM seliciclib
From the text: as §1

SK-N-MC = SK-N-MC (Brain), 15 μM seliciclib
From the text: as §1

G-401 = G-401 (Kidney), 15 μM seliciclib
From the text: as §1

HCC38 = HCC38 (Breast), 15 μM seliciclib
From the text: as §1

JHU-013 = JHU-013 (Head & Neck), 15 μM seliciclib
From the text: as §1

KP-1N = KP-1N (Pancreas), 15 μM seliciclib
From the text: as §1

NCI-H1792 = NCI-H1792 (Lung: NSCLC), 15 μM seliciclib
From the text: as §1

COR-L23 = COR-L23 (Lung: NSCLC), 15 μM seliciclib
From the text: as §1

GAMG = GAMG (Brain), 15 μM seliciclib
From the text: as §1

NCI-H2023 = NCI-H2023 (Lung: NSCLC), 15 μM seliciclib
From the text: as §1

PCI-15B = PCI-15B (Head & Neck), 15 μM seliciclib
From the text: as §1

8505C = 8505C (Thyroid), 15 μM seliciclib
From the text: as §1

GTL-16 = GTL-16 (Stomach), 15 μM seliciclib
From the text: as §1

KYSE-510 = KYSE-510 (Esophagus), 15 μM seliciclib
From the text: as §1

UO-31 = UO-31 (Kidney), 15 μM seliciclib
From the text: as §1

SK-OV-3 = SK-OV-3 (Ovary), 15 μM seliciclib
From the text: as §1

NCI-H2122 = NCI-H2122 (Lung: NSCLC), 15 μM seliciclib
From the text: as §1

NCI-H2228 = NCI-H2228 (Lung: NSCLC), 15 μM seliciclib
From the text: as §1

CC[C@H](CO)Nc1nc(NCc2ccccc2)c2ncn(C(C)C)c2n1 [seliciclib, roscovitine]
Fractional Growth (HEC-1): 0.4632 | Fractional Growth (MG-63): 0.5484 | Fractional Growth (KU-19-19): 0.3033 | Fractional Growth (DAN-G): 0.6841 | Fractional Growth (HO-1-u-1): 0.4858 | Fractional Growth (EPLC-272H): 0.6305 | Fractional Growth (OVCAR-5): 0.4053 | Fractional Growth (SW 156): 0.467 | Fractional Growth (C32): 0.5391 | Fractional Growth (Ca Ski): 0.591 | Fractional Growth (Panc 08.13): 0.4222 | Fractional Growth (HOS): 0.617 | Fractional Growth (LCLC-103H): 0.5051 | Fractional Growth (HPAF-II): 0.4628 | Fractional Growth (MFE-280): 0.5959 | Fractional Growth (HLE): 0.1553 | Fractional Growth (AZ-521): 0.5115 | Fractional Growth (HGC-27): 0.2806 | Fractional Growth (CAL-29): 0.5744 | Fractional Growth (NCI-H1568): 0.3317 | Fractional Growth (SK-N-MC): 0.283 | Fractional Growth (G-401): 0.3542 | Fractional Growth (HCC38): 0.8297 | Fractional Growth (JHU-013): 0.2699 | Fractional Growth (KP-1N): 0.6045 | Fractional Growth (NCI-H1792): 0.4649 | Fractional Growth (COR-L23): 0.2341 | Fractional Growth (GAMG): 0.571 | Fractional Growth (NCI-H2023): 0.4148 | Fractional Growth (PCI-15B): 0.2847 | Fractional Growth (8505C): 0.4214 | Fractional Growth (GTL-16): 0.6482 | Fractional Growth (KYSE-510): 0.4141 | Fractional Growth (UO-31): 0.3152 | Fractional Growth (SK-OV-3): 0.7375 | Fractional Growth (NCI-H2122): 0.1093 | Fractional Growth (NCI-H2228): 0.6493
